Several values for one entry are separate records, joined by “and”; a condition that tells them apart may be missing. Identical values can stand only once.
Assay: Pharmacokinetic results from Phase II clinical trial: systemic exposure (plasma cantharidin) after topical application (Example 3)
Type: in vivo, human
Experimental: This example describes pharmacokinetic results from a Phase II clinical trial for the treatment of skin lesion resulting from Molluscum contagiosum. Patients received administrations of the cantharidin composition in Table 2 to Molluscum contagiosum lesions every 21 days for a maximum of 4 sessions or until complete clearance. Blood samples for systemic exposure evaluation were collected on Day 1, prior to the drug application, and 2 (±30 minutes), 6 (±1 hour) and 24 (±3 hours) hours post-application. The average age of the subjects was 7±3.5 years. The average body weight of the subjects was 58±34.6 lb. The average number of lesions per subject was 43.7±24.2.

C[C@@]12C(=O)OC(=O)[C@]1(C)[C@H]1CC[C@@H]2O1 [cantharidin]
plasma concentration of cantharidin (all subjects, all times sampled (2, 6, 24 hours post-application)): less than 3.3 ng/ml
Exposure (plasma concentration of cantharidin) (one line per subject, topical cantharidin composition of Table 2 on molluscum lesions, blood at 2, 6 and 24 hours post-application on Day 1, LLOQ 2.5 ng/ml): <2.5 ng/ml (16×) and 3.3 ng/ml
subjects with plasma concentration of cantharidin above the lower limit of quantification (2.5 ng/ml) (seventeen subjects): Only one of the seventeen subjects
plasma concentration of cantharidin (subjects as young as 2 years old, having over 100 lesions, having genital lesions, with as many as 2.26 lesions per lb: below LLOQ): < 2.5 ng/mL
